Assay results: patent publication US20180296453A1, “Oral Care Product and Methods of Use and Manufacture Thereof” (Colgate-Palmolive Company, priority 2008, published 2018)

Key:
S. sanguis = assay: Ammonia production by S. sanguis at pH 4.0; assay type: cell-based; conditions: 5 millimolar, pH 4.0, 0.1% sucrose, 37° C., 30 minutes
Protocol: An overnight culture of S. sanguis was grown at 37° C. in trypticase soy broth (Becton Dickinson, Sparks, Md.). The culture was centrifuged at 5,000 rpm for 5 minutes at 1 milliliter at a time into preweighed tubes in order to accumulate approximately 5 milligrams of wet pellet weight. The pellet was then resuspended into 20 millimolar potassium phosphate buffer (JT Baker, Phillipsburg, N.J.), pH 4.0, to simulate a stressed environment for the bacterial cell where ammonia would be produced for survival. The final concentration was 5 milligram per milliliter. To this final concentration, a 5 millimolar final concentration of L-arginine, L-citrulline, or L-ornithine was added along with a 0.1% final concentration of sucrose (VWR, West Chester, Pa.). This mixture was then incubated at 37° C. in a shaking water bath for 30 minutes before ammonia production was determined.
In order to analyze for ammonia, an Ammonia Assay kit was used from Diagnostic Chemicals Limited (Oxford, Conn.). The intended use of this specific kit is for the in vitro quantification of ammonia in plasma, but the procedure was modified in order to determine and quantify the ammonia production in plaque and/or bacteria.

[1] = cited from earlier work

Compound | Ammonia (S. sanguis; Mean of 6 trials) [ppm] | Ammonia (S. sanguis; Trial 1) [ppm] | Ammonia (S. sanguis; Trial 2) [ppm] | Ammonia (S. sanguis; Trial 3) [ppm] | Ammonia (S. sanguis; Trial 4) [ppm] | Ammonia (S. sanguis; Trial 5) [ppm] | Ammonia (S. sanguis; Trial 6) [ppm] | solubility in water (in words) [1]
N=C(N)NCCC[C@H](N)C(=O)O [L-Arginine, L-arginine] | 1.06 | 0.509 | 0.866 | 2.20 | 1.62 | 0.5 | 0.679 | 
Oc1cc(Cl)ccc1Oc1ccc(Cl)cc1Cl [triclosan, 5-chloro-2-(2,4-dichlorophenoxy)phenol] |  |  |  |  |  |  |  | only slightly soluble in water
NC(=O)NCCC[C@H](N)C(=O)O [L-Citrulline, L-citrulline] | 0.951 | 0.185 | 0.346 | 0.332 | 0.194 | 0.226 | 0.951 | 
NCCC[C@H](N)C(=O)O [L-Ornithine, L-ornithine] | 0.134 | 0.185 | 0.260 | 0.047 | 0.0 | 0.181 | 0.135 | 
